Activity calls are given as the source filed them. The calls are words filed in the database; no cut-off is given here.
Columns and labels:
[1] = Apparent volume of distribution during terminal phase in Sprague-Dawley rat at 15 mg/kg, po and measured upto 48 hrs by LC-MS/MS analysis; assay type: ADME, organism-based; conditions: in vivo, read-out: Vz/F
[2] = Acute toxicity in BALB/c mouse assessed as changes in general health status at 600 mg/kg,po and measured for 14 days; assay type: organism-based; conditions: in vivo, 336 h, time 14 day
[3] = Metabolic stability in rat liver microsomes assessed as intrinsic clearance at 3 uM incubated upto 90 mins in presence of NADPH by LC-MS/MS analysis; assay type: ADME, Microsome; conditions: read-out: CLH
[4] = Metabolic stability in mouse liver microsomes assessed as intrinsic clearance at 3 uM incubated upto 90 mins in presence of NADPH by LC-MS/MS analysis; assay type: ADME, Microsome; conditions: read-out: CLH
[5] = Acute toxicity in BALB/c mouse assessed as death at 600 mg/kg,po and measured for 14 days; assay type: organism-based; conditions: in vivo, 336 h, time 14 day
[6] = Acute toxicity in BALB/c mouse assessed as body weight loss at 600 mg/kg,po and measured for 14 days; assay type: organism-based; conditions: in vivo, 336 h, time 14 day
[7] = Acute toxicity in BALB/c mouse assessed as changes in platelet count in blood at 600 mg/kg,po and measured after 14 days by hematology test; assay type: organism-based; conditions: in vivo, 336 h, time 14 day
[8] = Acute toxicity in BALB/c mouse assessed as changes in hemoglobin level in blood at 600 mg/kg,po and measured after 14 days by hematology test; assay type: organism-based; conditions: in vivo, 336 h, time 14 day
[9] = Acute toxicity in BALB/c mouse assessed as changes in hematocrit level in blood at 600 mg/kg,po and measured after 14 days by hematology test; assay type: organism-based; conditions: in vivo, 336 h, time 14 day
[10] = Acute toxicity in BALB/c mouse assessed as changes in WBC level in blood at 600 mg/kg,po and measured after 14 days by hematology test; assay type: organism-based; conditions: in vivo, 336 h, time 14 day
[11] = Acute toxicity in BALB/c mouse assessed as changes in neutrophil level in blood at 600 mg/kg,po and measured after 14 days by hematology test; assay type: organism-based; conditions: in vivo, 336 h, time 14 day
[12] = Acute toxicity in BALB/c mouse assessed as changes in LDH level in serum at 600 mg/kg,po and measured after 14 days by Biochemistry analysis; assay type: organism-based; conditions: in vivo, 336 h, time 14 day
[13] = Acute toxicity in BALB/c mouse assessed as changes in UA level in serum at 600 mg/kg,po and measured after 14 days by Biochemistry analysis; assay type: organism-based; conditions: in vivo, 336 h, time 14 day
[14] = Acute toxicity in BALB/c mouse assessed as changes in TP level in serum at 600 mg/kg,po and measured after 14 days by Biochemistry analysis; assay type: organism-based; conditions: in vivo, 336 h, time 14 day
[15] = Acute toxicity in BALB/c mouse assessed as changes in CREA level in serum at 600 mg/kg,po and measured after 14 days by Biochemistry analysis; assay type: organism-based; conditions: in vivo, 336 h, time 14 day
[16] = Acute toxicity in BALB/c mouse assessed as tissue damage in lung at 600 mg/kg,po and measured after 14 days by hematoxylin and eosin staining based microscopy; assay type: organism-based; conditions: in vivo, 336 h, time 14 day
[17] = Acute toxicity in BALB/c mouse assessed as tissue damage in kidney at 600 mg/kg,po and measured after 14 days by hematoxylin and eosin staining based microscopy; assay type: organism-based; conditions: in vivo, 336 h, time 14 day
[18] = Acute toxicity in po dosed BALB/c mouse assessed as maximum tolerate dose; assay type: organism-based; conditions: in vivo
Mus musculus [19] = experiment: Anti-inflammatory activity against DSS-induced acute ulcerative colitis in C57BL/6 mouse model assessed as decrease in body weight loss at 40 mg/kg, po QD for 6 days (Rvb= 25.6%); assay type: functional; design: scale not given: the % may be the effect or the level left; conditions: time 6 day
Mus musculus [20] = experiment: Anti-inflammatory activity against DSS-induced acute ulcerative colitis in C57BL/6 mouse model assessed as decrease in DAI score at 40 mg/kg, po QD for 6 days; assay type: functional, organism-based; conditions: time 6.0 day
Mus musculus [21] = experiment: Anti-inflammatory activity against DSS-induced acute ulcerative colitis in C57BL/6 mouse model assessed as decrease in colon length shortening at 40 mg/kg, po QD for 6 days (Rvb= 5.5cm); assay type: functional; conditions: time 6 day
Mus musculus [22] = experiment: Anti-inflammatory activity against DSS-induced acute ulcerative colitis in C57BL/6 mouse model assessed as decrease in IL-17 mRNA expression level in colon at 40 mg/kg, po QD for 6 days by RT-PCR analysis; assay type: functional, organism-based; conditions: time 6.0 day
Mus musculus [23] = experiment: Anti-inflammatory activity against DSS-induced acute ulcerative colitis in C57BL/6 mouse model assessed as decrease in IL-1beta mRNA expression level in colon at 40 mg/kg, po QD for 6 days by RT-PCR analysis; assay type: functional, organism-based; conditions: time 6.0 day
Mus musculus [24] = experiment: Anti-inflammatory activity against DSS-induced acute ulcerative colitis in C57BL/6 mouse model assessed as decrease in IL-6 production in colon at 40 mg/kg, po QD for 6 days by ELISA; assay type: functional; design: scale not given: the % may be the effect or the level left; conditions: time 6 day
Mus musculus [25] = experiment: Anti-inflammatory activity against DSS-induced acute ulcerative colitis in C57BL/6 mouse model assessed as decrease in IL-17 production in colon at 40 mg/kg, po QD for 6 days by ELISA; assay type: functional; design: scale not given: the % may be the effect or the level left; conditions: time 6 day
[26] = Half life in Sprague-Dawley rat at 5 mg/kg, iv and measured upto 48 hrs by LC-MS/MS analysis; assay type: ADME, organism-based; conditions: in vivo
[27] = Cmax in Sprague-Dawley rat at 5 mg/kg, iv and measured upto 48 hrs by LC-MS/MS analysis; assay type: ADME, organism-based; design: time < 48 hrs, dose 5 mg/kg, route iv; conditions: in vivo
[28] = Apparent volume of distribution during terminal phase in Sprague-Dawley rat at 5 mg/kg, iv and measured upto 48 hrs by LC-MS/MS analysis; assay type: ADME, organism-based; conditions: in vivo
[29] = Tmax in Sprague-Dawley rat at 15 mg/kg, po and measured upto 48 hrs by LC-MS/MS analysis; assay type: ADME, organism-based; conditions: in vivo
[30] = Clearance in Sprague-Dawley rat at 15 mg/kg, po and measured upto 48 hrs by LC-MS/MS analysis; assay type: ADME, organism-based; conditions: in vivo
[31] = Oral bioavailability in Sprague-Dawley rat at 15 mg/kg and measured upto 48 hrs by LC-MS/MS analysis; assay type: ADME, organism-based; conditions: in vivo
Mus musculus [32] = experiment: Anti-inflammatory activity against DSS-induced acute ulcerative colitis in C57BL/6 mouse model assessed as increase in colon length at 20 mg/kg, po QD for 6 days (Rvb= 5.3cm); assay type: functional; conditions: time 6 day
Mus musculus [33] = experiment: Anti-inflammatory activity against DSS-induced acute ulcerative colitis in C57BL/6 mouse model assessed as increase in colon length at 40 mg/kg, po QD for 6 days (Rvb= 5.3cm); assay type: functional; conditions: time 6 day
Mus musculus [34] = experiment: Anti-inflammatory activity against DSS-induced acute ulcerative colitis in C57BL/6 mouse model assessed as decrease in IL-6 mRNA expression level in colon at 20 to 80 mg/kg, po QD for 6 days by RT-qPCR analysis; assay type: functional, organism-based; conditions: dose 20-80 mg/kg, time 6.0 day
Mus musculus [35] = experiment: Anti-inflammatory activity against DSS-induced acute ulcerative colitis in C57BL/6 mouse model assessed as decrease in IL-1beta protein level in colon at 20 to 80 mg/kg, po QD for 6 days by ELISA; assay type: functional, organism-based; conditions: dose 20-80 mg/kg, time 6.0 day

## Nc1nc(-c2cn(Cc3c(F)cccc3Cl)c3ncccc23)ncc1C1CC1
[1]
  Vd/F: 2.95 L/kg
[2]
  Activity: Non-Toxic
[3]
  CLint scaled at 3 µM: 319 mL/min/kg
[4]
  CLint scaled at 3 µM: 581 mL/min/kg
[5]
  Activity: Non-Toxic
[6]
  Activity: Non-Toxic
[7]
  Activity: Non-Toxic
[8]
  Activity: Non-Toxic
[9]
  Activity: Non-Toxic
[10]
  Activity: Non-Toxic
[11]
  Activity: Non-Toxic
[12]
  Activity: Non-Toxic
[13]
  Activity: Non-Toxic
[14]
  Activity: Non-Toxic
[15]
  Activity: Non-Toxic
[16]
  Activity: Non-Toxic
[17]
  Activity: Non-Toxic
[18]
  MTD: 600 mg/kg
Mus musculus [19]
  Activity: 7.4%
Mus musculus [20]
  Activity: Active
Mus musculus [21]
  Activity: 7 cm
Mus musculus [22]
  Activity: Active
Mus musculus [23]
  Activity: Active
Mus musculus [24]
  Activity: 77.73%
Mus musculus [25]
  Activity: 57.35%
[26]
  half-life: 2.6 h
[27]
  Cmax: 12300 ng/mL
[28]
  Vz/F: 1.05 L/kg
[29]
  Tmax: 2 h
[30]
  CL/F: 21.7 mL/min/kg
[31]
  bioavailability: 21.7%
Mus musculus [32]
  Activity: 6.1 cm
Mus musculus [33]
  Activity: 6.7 cm
Mus musculus [34]
  Activity: Dose-Dependent Effect
Mus musculus [35]
  Activity: Dose-Dependent Effect

— ChEMBL document CHEMBL5390254, “Discovery and Optimization of Novel hDHODH Inhibitors for the Treatment of Inflammatory Bowel Disease” (J Med Chem, 2023)
